The values that follow come from patent publication US20230151432A1, “KIF18A INHIBITORS FOR TREATMENT OF NEOPLASTIC DISEASES” (AMGEN INC., priority 2020, published 2023).

pIC50: −log10 of the molar value.

Data set [1] relates to KIF18A protein localization in HeLa cells. Description: KIF18A and Centrin-3 immunostaining. The class given is cell-based, human. The settings on record: 0.05 μM, 6 hours. How it is done: To analyze the effect of KIF18A protein localization in cancer cells treated with a KIF18A inhibitor, KIF18A and Centrin-3 immunostaining in HeLa cells (FIG. 11). Cells were seeded into Lab-Tek 2-well chamber slides at a density of 100,000 cells per chamber in complete growth media and grown for 2 days to approximately 80% confluency. Cells were treated for 6 hours with DMSO, KIF18A inhibitor (Compound C9, 0.05 μM) in 2 mL of complete media. Cells were fixed in 4% formaldehyde for 15 minutes at room temperature followed by secondary fixation in ice-cold 90% methanol for 10 minutes at 4° C. After fixation, cells were washed in 2 mL of Wash Buffer (1% BSA, 0.2% Triton X-100, 1×PBS) and blocked 1 mL of Blocking Buffer (2 drops of horse serum (Vector Labs, Burlingame, Calif.) per 5 mL Wash Buffer). Cells are stained with anti-KIF18A rabbit antibody (1:3000, A301-080A 05-806, Bethyl) and anti-CETN3 mouse antibody (1:1000, H00001070-M01, Abnova) in 1 mL of Wash Buffer for 2 hours at room temperature. Cells were washed twice with 2 mL Wash Buffer. […] Wide-field images were captured using 40×objective on upright Nikon Eclipse NI-E epi-fluorescence microscope running Elements software. […]

A further data set concerns CAL-51 tumors. Nature of the data set: CAL-51 Tumor Xenograft Efficacy Study (IP). The settings on record: 100 mg/kg IP once daily for 18 consecutive days. The class given is in vivo, mouse. How it is done:
Tumor volume and body weight assessment performed as described above. After the final dose on day 36, plasma pharmacokinetic analysis was performed as described above. All data analysis was performed as described above.

Data set [2] addresses T1, Recombinant human KIF18A (1-467 His-tagged) protein (Homo sapiens, UniProt Q8NI77).
T1 construct: Recombinant human KIF18A (1-467 His-tagged) protein; His; made in house
Nature of the data set: KIF18A Enzyme Assay (microtubule-stimulated ATPase activity, ADP-Glo). Type of data set: biochemical. The settings on record: 30 nM KIF18A, 75 μM ATP. The method, then:
KIF18A Enzyme Assay: Microtubule-stimulated ATPase activity assay was used to measure KIF18A enzyme activity after treatment with compound. Compounds were 2-fold serially diluted in DMSO (Sigma Inc) over 22-point concentration range. […] The assay measures ADP formed from the ATPase reaction.
Concentration-response curve-fitting and IC50 determination was performed using Genedata Screener Software (Standard 15.0.1, Genedata Inc) with a four-parameter logistic regression fit model.
For orientation: ADP-Glo first removes unused ATP, then detects ADP through luciferase.

The test system of data set [3] is human foreskin fibroblast (hFSF) cells. Nature of the data set: BrdU incorporation assay in normal cells. The settings on record: 48 hours. The class given is cell-based. The method, then:
(§1) The effect KIF18A inhibitor treatment has on proliferation of normal somatic cells (e.g., not neoplastic cells) was tested by assaying proliferation of human bone marrow mononuclear cells (HBMNCs), primary human foreskin fibroblast cells (hFSF) and human mammary epithelial cells via a 5-bromo-2′-deoxyuridine (BrdU) incorporation assay in which BrdU, an analog of the nucleoside thymidine, is used to identify proliferating cells (Payton et. al., Molecular Cancer Therapeutics, 17(12):2575-85 (2018)). Cells were analyzed on BD LSRFortessa flow cytometer using BD FACSDiva software (BD Biosciences), and post-acquisition data analysis was performed using FSC-Express software (De Novo). The percentage of BrdU positive gated events on the stacked DNA content histograms were reported.
In general terms: Incorporation of labelled thymidine or its analogues reports DNA synthesis.

For data set [4], the system named is human mammary epithelial cells (HMEC). Description: BrdU incorporation assay in normal cells. Type of data set: cell-based. Conditions: 48 hours. The method, then:
as §1

In data set [5] the test system is OVCAR-8 NCI/ADR-RES cells. Nature of the data set: Nuclear count assay in multidrug resistant cells, with or without P-gp inhibitor. The class given is cell-based, human. The settings on record: OVCAR-8 NCI-ADR RES subline, Count POC (FIG. 3E). The method, then: Compound was added to the cells with a final volume of 200 μL in complete media containing 0.5% DMSO.
The plates were sealed and incubated for 1 hour at room temperature in the dark. Cells were stored at 4° C. in the dark until data acquisition. […] The Total Valid Object Count was represented as a Count POC (Percentage of DMSO Control) using the following formula:
Briefly, OVCAR-8 cells were seeded in duplicate in a Corning 96-well Flat Clear Bottom Black Polystyrene plates (Corning, N.Y.) in 100 μL of appropriate complete media at the appropriate density and grown for 24 hours. […] After 4 days (96 hours) of treatment, the cells were fixed by removing 100 μL of complete media from each well and replacing it with 100 μL of 2×formaldehyde (final 4%) and incubating the plates for 15 minutes at room temperature. […] The plates were sealed and incubated for 1 hour at room temperature in the dark. Cells were stored at 4° C. in the dark until data acquisition. […] The Total Valid Object Count was represented as a Count POC (Percentage of DMSO Control) using the following formula:
Count POC=(Total Valid Object Count in treated well)[…](Total Valid Object Count in DMSO treated wells)×100
Compound concentration and Count POC values were plotted using GraphPad Prism software (V7.0.4) and curve-fitting was performed with 4-parameter equation (variable slope). The concentration-response curves and standard deviation represent two independent experiments run in duplicate.

One may read the pIC50 as the IC50 on a negative log10 scale, so that one unit is a factor of ten.

T1 sequence (Q8NI77 1-467): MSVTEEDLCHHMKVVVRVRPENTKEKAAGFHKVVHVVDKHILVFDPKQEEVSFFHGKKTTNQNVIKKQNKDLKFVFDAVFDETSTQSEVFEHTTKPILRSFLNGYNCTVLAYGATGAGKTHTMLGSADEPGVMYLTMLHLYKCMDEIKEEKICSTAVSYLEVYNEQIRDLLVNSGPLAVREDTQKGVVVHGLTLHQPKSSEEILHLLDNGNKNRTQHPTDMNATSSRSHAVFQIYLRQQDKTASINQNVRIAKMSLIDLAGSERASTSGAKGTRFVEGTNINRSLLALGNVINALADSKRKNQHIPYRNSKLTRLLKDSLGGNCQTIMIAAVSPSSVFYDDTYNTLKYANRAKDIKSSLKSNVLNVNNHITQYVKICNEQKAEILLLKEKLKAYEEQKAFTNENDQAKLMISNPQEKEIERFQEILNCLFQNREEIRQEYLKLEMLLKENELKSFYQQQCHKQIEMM
T1 sequence (P02550 whole entry partner): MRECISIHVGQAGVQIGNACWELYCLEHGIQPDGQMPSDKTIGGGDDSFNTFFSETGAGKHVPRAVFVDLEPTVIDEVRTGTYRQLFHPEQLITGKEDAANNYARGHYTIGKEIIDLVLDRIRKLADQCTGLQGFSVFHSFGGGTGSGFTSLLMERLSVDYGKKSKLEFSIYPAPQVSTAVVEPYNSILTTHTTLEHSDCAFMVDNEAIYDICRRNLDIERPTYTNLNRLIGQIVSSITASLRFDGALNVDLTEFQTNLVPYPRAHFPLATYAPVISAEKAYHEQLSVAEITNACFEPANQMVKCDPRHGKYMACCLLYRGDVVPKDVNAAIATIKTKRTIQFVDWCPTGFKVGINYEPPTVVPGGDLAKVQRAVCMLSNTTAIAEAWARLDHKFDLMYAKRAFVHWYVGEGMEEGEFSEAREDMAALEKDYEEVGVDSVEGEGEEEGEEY
T1 sequence (P02554 whole entry partner): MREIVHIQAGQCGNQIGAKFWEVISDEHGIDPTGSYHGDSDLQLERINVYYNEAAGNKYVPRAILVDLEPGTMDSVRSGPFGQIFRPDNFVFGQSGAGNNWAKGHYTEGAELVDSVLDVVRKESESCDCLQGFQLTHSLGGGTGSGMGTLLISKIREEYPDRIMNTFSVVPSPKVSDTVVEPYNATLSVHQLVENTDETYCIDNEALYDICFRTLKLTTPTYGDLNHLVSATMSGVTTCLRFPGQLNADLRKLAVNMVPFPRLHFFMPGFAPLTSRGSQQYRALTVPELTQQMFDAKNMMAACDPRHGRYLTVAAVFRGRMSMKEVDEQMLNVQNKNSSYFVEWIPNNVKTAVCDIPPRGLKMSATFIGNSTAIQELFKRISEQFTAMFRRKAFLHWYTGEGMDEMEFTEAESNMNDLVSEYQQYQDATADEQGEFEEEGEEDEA

Turning to `CC(C)(C)NS(=O)(=O)c1cccc(NC(=O)c2ccc(S(=O)(=O)NC(C)(C)C)cc2N2CCC3(CC2)CC3)c1` [Compound C9, 4-(N-(tert-butyl)sulfamoyl)-N-(3-(N-(tert-butyl)sulfamoyl)phenyl)-2-(6-azaspiro[2.5]octan-6-yl)benzamide], the “KIF18A protein localization in mitosis” value in data set [1] is recorded as “KIF18A protein mis-localization in mitosis”. For the same molecule, in the data set with CAL-51 tumors, the “effect on tumor growth relative to vehicle control” value is “no observable effect”.

On to `CC(C)(CO)Nc1ccc(C(=O)Nc2cccc(S(=O)(=O)C3CCCC3)c2)c(N2CCC3(CC2)CC3)n1` [Compound C11, N-(3-(cyclopentylsulfonyl)phenyl)-6-((1-hydroxy-2-methylpropan-2-yl)amino)-2-(6-azaspiro[2.5]octan-6-yl)nicotinamide], for which the pIC50 in data set [2] was 7.39. Besides, the “BrdU incorporation relative to DMSO treated cells” value in data set [3] and in data set [4] was “not impacted at concentrations <10 μM” throughout.

Turning to `Cc1cc(NC(=O)c2ccc(NS(=O)(=O)CCO)cc2N2CCC3(CC2)CC3)nc(N2CCC(F)(F)CC2)n1` [Compound C14, N-(2-(4,4-Difluoropiperidin-1-yl)-6-methylpyrimidin-4-yl)-4-((2-hydroxyethyl)sulfonamido)-2-(6-azaspiro[2.5]octan-6-yl)benzamide], the “sensitivity of the cell line compared with PARP inhibitor, paclitaxel, doxorubicin, carboplatin” value in data set [5] is “greatest sensitivity”.
